Measured values reported in patent US20260327239A1, “COMPOUNDS FOR COVALENT INHIBITION OF SHP2” (Purdue Research Foundation, priority 2023, published 2026).

Target: T1, SHP2 (residues 224-528) (Homo sapiens, UniProt Q06124)
T1 construct: 4× solution of SHP2 (residues 224-528)
T1 sequence (Q06124 224-528): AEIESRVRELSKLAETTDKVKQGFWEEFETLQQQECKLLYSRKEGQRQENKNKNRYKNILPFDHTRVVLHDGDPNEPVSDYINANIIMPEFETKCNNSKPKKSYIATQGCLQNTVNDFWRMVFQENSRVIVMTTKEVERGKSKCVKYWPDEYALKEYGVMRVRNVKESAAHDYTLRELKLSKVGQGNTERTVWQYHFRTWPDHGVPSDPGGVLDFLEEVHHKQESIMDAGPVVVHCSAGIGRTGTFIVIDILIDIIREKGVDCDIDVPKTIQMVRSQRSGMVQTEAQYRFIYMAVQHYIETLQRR
Assay: Kinetic characterization of SHP2 inactivation (pNPP cleavage progress curves, kobs, kinact/KI)
Assay type: biochemical
Conditions: pH 7, role: inhibitor; substrate pNPP 3 mM, 100 nM SHP2, pH 7.0, 25° C; read-out: kinact/KI (converted)
Text: Covalent inhibitors work by forming a covalent bond with a reactive functional group in the target enzyme. Consequently, the kinetics for enzyme inactivation by a covalent inhibitor is not an equilibrium process as with reversible inhibition. The potency of a reversible inhibitor can be measured by its IC50 value. Unlike reversible inhibitors, where inhibition is only concentration-dependent, covalent inhibitors show both time- and concentration-dependent target inhibition (a covalent bond formation is a time-dependent event). If sufficient time is available, covalent inhibitors can completely neutralize the target, rather than go to equilibrium. As a result, the potency and selectivity of a covalent inhibitor cannot be determined by IC50 values; instead, the rate of inactivation of the target (kinact) and the inhibition constant (KI) were determined. The bimolecular rate constant (kinact/KI), was chosen to rank the potency of covalent inhibitors (Ruddraraju et al., 2017, Molecular Biosystems 13(7), 1257-1279).
PTPs catalyze the dephosphorylation of tyrosine-phosphorylated protein substrates through a conserved mechanism that relies on a catalytic cysteine residue (Zhang, Z.-Y et al., 2003, Prog. Nucleic Acid Research Molecular Biology, 73, 171-220). This provides a mechanistic rationale for the assessment of electrophilic Michael acceptors, such as those synthesized in the present disclosure as potential covalent inhibitors of the SHP2. The enzymatic cleavage of para-nitrophenyl phosphate by SHP2 was measured over time in the presence of 100 μM inhibitor or DMSO, to determine the observed first-order rate constant (kobs). Based on kobs values, compounds were further evaluated in a dose-dependent manner to determine the second-order rate constant (kinact/KI) indicating the overall efficacy of the compounds, which was used to assess the structure-activity relationship (SAR) for the analogs of interest and design additional analogs (see Table 1). […] It has been known that modifications to the electronegativity of substituents proximal to electrophilic centers alter the reactivity of the electrophile.
The efficacy of covalent inhibitors can be broken down into the initial reversible binding of the compounds (KI), and the rate of covalent bond formation and enzyme inactivation (kinact). These two constants can be used individually, or as a ratio to determine the overall efficacy of the inhibitor's efficacy. To investigate the contribution to reversible binding compound (34) was evaluated, which lacks the carbonyl of the Michael acceptor to prevent the formation of a covalent adduct.
Inhibitors were evaluated for their ability to inhibit the reaction catalyzed by SHP2 using para-nitrophenyl phosphate (pNPP) as a substrate at pH 7 and 25° C. A 2× solution of inhibitor was diluted into DMG buffer (50 mM 3,3-dimethylglutarate pH 7.0, 1 mM EDTA, ionic strength adjusted to 150 mM using NaCl) was added to a clear flat-bottom 96-well plate (Corning Costar Assay Plate #9017), and serially diluted 1.5-fold, resulting in 100 μL volumes of varying inhibitor concentrations. To this was added a 4× solution of pNPP (12 mM) in DMG buffer. The reaction was initialized by the addition of a 4× solution of SHP2 (residues 224-528), resulting in a final solution of: inhibitor (100-0 μM), pNPP (3 mM), and SHP2 (100 nM). The plate was then monitored for a change in absorbance ab […] using a CLARIOstar^Plus plate reader (BMG Labetch) over the course of an hour. The resulting progress curves for each inhibitor were imported into Graphpad Prism 9 (GraphPad Software, San Diego, CA (USA)), and a baseline correction analysis was completed for fitting purposes. Each curve was fit to the equation Y=V0×(1−e^−kobs*t)/kobs.^[17.22] The kobs values were then plotted against inhibitor concentrations. If the resulting graph was linear, the kinact/KI value was determined by the slope of that line and the 95% confidence interval (95% CI). […]

kinact/KI: 396 M⁻¹ s⁻¹
Compound: C=C1C(=O)[C@@]2(C(=O)N3CCN(c4ccc(I)cc4)CC3)CC(=O)C[C@@H]1C2 [Compound 37]
